Results reported in paper PMC12736495, “First Insights into the Anti-Inflammatory Potential of Colliguaja odorifera Molina Leaf Extracts and Their Isolated Phenolic Compounds” (Plants, 2025).
Entries after “also recorded” stand apart in the source; their conditions may differ. Where two headings read alike, the source gives them in different places.

How the values were obtained:
[1] = target: Lipoxygenase; conditions: cited from earlier work
[2] = target: T1, lipoxygenase Type I-B LOX A from Glycine max L. (soybean) (15-LOX) (Glycine max, UniProt P08170); experiment: Inhibitory LOX activity assay (linoleic acid, absorbance at 234 nm); assay type: biochemical
T1 construct: purchased Sigma-Aldrich (Steinheim, Germany)
T1 sequence (P08170 1-839): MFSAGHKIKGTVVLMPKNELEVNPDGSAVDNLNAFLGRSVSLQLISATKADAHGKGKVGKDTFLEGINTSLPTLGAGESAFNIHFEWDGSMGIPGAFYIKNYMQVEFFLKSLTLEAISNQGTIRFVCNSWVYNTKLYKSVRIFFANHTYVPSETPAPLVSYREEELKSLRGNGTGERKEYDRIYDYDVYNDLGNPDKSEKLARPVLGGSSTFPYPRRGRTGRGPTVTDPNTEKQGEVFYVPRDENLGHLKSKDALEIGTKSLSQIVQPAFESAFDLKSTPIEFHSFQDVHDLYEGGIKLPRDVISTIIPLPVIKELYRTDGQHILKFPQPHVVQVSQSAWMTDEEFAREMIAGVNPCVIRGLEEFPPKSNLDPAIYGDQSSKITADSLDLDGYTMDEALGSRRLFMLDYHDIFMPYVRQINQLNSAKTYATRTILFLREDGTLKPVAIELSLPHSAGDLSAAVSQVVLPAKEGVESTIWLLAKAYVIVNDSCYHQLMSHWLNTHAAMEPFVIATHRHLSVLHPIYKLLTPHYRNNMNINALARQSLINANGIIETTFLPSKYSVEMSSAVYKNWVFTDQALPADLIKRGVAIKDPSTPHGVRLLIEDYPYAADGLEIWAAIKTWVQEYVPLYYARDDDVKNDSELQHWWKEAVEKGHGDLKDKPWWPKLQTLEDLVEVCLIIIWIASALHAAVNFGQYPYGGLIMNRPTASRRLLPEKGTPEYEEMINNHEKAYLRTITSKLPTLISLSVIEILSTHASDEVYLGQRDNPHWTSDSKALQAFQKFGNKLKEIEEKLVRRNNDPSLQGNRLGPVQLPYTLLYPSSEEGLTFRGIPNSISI
Protocol: The inhibitory LOX assay was conducted according to the procedure established by Lyckander and Malterud. The lipoxygenase Type I-B LOX A from Glycine max L. (soybean) (CAS: 9029-60-1) (15-LOX) with an optimal pH of 8.0–9.0 and linoleic acid used here, was obtained from Sigma-Aldrich (Steinheim, Germany).
A linoleic acid ethanol solution (268 µM) was prepared, and 50 µL of this solution was used to prepare concentrations ranging from 0.6 to 26 µg/mL for the HA-E sample, and from 0.6 to 12.9 µg/mL for the EA-E and B-E samples. Then the volume for each concentration was adjusted to 1 mL with 200 mM borate buffer (pH 8.75) containing 0.005% Tween 80. The reaction was initiated by adding 1.5 µL of Soybean 1-LOX (948 U), equivalent to 0.054 g/mL. Enzymatic activity was monitored by measuring the increase in absorbance at 234 nm for 4 min at 37 °C. Each enzyme measurement for each dilution was repeated three times. All tests were performed in triplicate. For this purpose, three samples were taken from each extract. For each of them, enzymatic activity was determined as described above. […] The percentage inhibition of enzyme activity was calculated by comparing the absorbance of the samples to that of the blank, using Equation (1), where A0 is the absorbance of the blank, and A1 is the absorbance of the sample.% inhibition = [(A0 − A1)/A0] × 100(1)
The percentage of inhibition was plotted against sample concentration to calculate the IC50 value.

[3] = target: T2, sPLA2 (Type V) (Homo sapiens, UniProt P39877); experiment: Screening assay for phospholipase A2 inhibitors (Type V), Cayman kit; assay type: biochemical
T2 construct: purchased Cayman Chemical Co. (Ann Arbor, MI, USA)
T2 sequence (P39877 21-138): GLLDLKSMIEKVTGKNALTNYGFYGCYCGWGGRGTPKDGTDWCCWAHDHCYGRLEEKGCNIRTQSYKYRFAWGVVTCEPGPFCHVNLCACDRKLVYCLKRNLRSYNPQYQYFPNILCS
Protocol: The phospholipase A2 inhibitory activity was determined using the phospholipase A2 (sPLA2) inhibitor detection assay kit (Type V). This kit was purchased from Cayman Chemical Co. (Ann Arbor, MI, USA). Briefly, 10 μL of C. odorifera extracts (HA-E, EA-E, B-E, and W-E, separately) were pre-incubated with 25 mM Tris-HCl buffer at pH 7.5, including 10 μL of phospholipase A2. The reaction was initiated by adding 200 μL of a 1.66 mM diheptanoyl thio-PC substrate solution. The plate was then shaken for 30 s and incubated at 25 °C for 15 min. Then, 10 µL of 5,5′-dithiobis(2-nitrobenzoic acid) (DTNB) was added to stop the enzymatic reaction and allow color development. The reaction mixture was stirred on a shaker for one minute, and the absorbance was subsequently measured at 405 nm with a spectrophotometer (METASH, UV-1500B; Shanghai Metash Instrument Co., Shanghai, China). According to the kit instructions, the sPLA2 activity was evaluated with extract concentrations ranging from 27 to 108 μg/mL. Arachidonic thioester phosphatidylcholine was used as the positive control. […] All tests were performed in triplicate.

[4] = target: T3, hyaluronidase (Bos taurus, UniProt Q2YDK3); experiment: Hyaluronidase inhibition assay (turbidimetric kit); assay type: biochemical; conditions: sodium hyaluronate substrate, 37 °C, mean ± s.d.
T3 sequence (Q2YDK3 36-553): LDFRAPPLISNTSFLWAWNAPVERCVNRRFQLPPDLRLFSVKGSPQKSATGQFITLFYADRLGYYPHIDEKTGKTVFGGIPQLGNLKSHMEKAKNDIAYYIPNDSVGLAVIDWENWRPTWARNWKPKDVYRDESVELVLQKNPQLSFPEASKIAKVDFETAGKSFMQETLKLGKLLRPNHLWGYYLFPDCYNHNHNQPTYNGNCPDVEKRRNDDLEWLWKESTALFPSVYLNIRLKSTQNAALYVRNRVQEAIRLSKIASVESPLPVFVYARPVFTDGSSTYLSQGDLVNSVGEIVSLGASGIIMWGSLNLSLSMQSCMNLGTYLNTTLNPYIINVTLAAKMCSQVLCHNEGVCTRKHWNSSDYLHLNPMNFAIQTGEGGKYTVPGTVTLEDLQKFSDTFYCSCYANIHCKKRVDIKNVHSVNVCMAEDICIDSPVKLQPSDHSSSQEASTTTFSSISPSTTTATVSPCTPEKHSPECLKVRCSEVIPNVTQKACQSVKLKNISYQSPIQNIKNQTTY
Protocol: The hyaluronidase inhibitory activity of the extracts was assessed using the Hyaluronidase Inhibitor Detection Assay Kit purchased from Sigma-Aldrich (St. Louis, MO, USA), which employs a two-step turbidimetric reaction to measure the amount of hyaluronic acid hydrolyzed by the enzyme, where the decrease in turbidity is proportional to the enzymatic activity of the sample. The assay was conducted according to the manufacturer’s instructions, with slight modifications, using 96-well plates. Briefly, a reaction mixture containing 10 μL of C. odorifera extract (HA-E, EA-E, B-E, and W-E, separately) and 20 μL of the enzyme (at a concentration of 100 U/mL in incubation buffer) was mixed in each well. After a 15 min incubation at 37 °C, a 20 μL substrate solution (0.1% sodium hyaluronate) was added to each well. The plates were incubated at 37 °C for an additional 20 min. Then, non-hydrolyzed […] was precipitated by adding 250 μL of 2.5% cetyltrimethylammonium bromide (CTAB). […] The intensity of complex formation was measured by absorbance at 630 nm in a spectrophotometer (METASH, UV-1500B). […] The percentage of hyaluronidase inhibition was calculated using Equation (2), where AS is the absorbance of the solution with the sample extract, AC is the absorbance of the solution without inhibitor, and AT is the absorbance of the enzyme.Inhibition = (AS − AC)/(AT − AC) × 100(2)

[5] = LOX Inhibition (IC50 µg/mL), soybean 15-LOX, linoleic acid substrate, borate buffer pH 8.75, 37 °C, mean ± s.d.
[6] = anti-LOX activity, concentration for 50% inhibition in µM, same LOX IC50 expressed in µM

For `O=c1cc(-c2ccccc2)oc2cc(O)c(O)c(O)c12` [Baicalein], which “Lipoxygenase inhibition IC50” value ([1]; Euphorbiaceae extract and its control) is on record?
The value was 22.4 µg/mL.

What about the “Lipoxygenase inhibition IC50” value ([1]; extract and its control) of the same compound?
The value was 0.15 µg/mL.

With `CCOC(=O)c1cc(O)c(O)c(O)c1` [Ethyl gallate] as the compound, how does the IC50 ([2]; soybean 15-LOX, linoleic acid substrate, borate buffer pH 8.75, 37 °C, mean ± s.d., read-out: LOX Inhibition (IC50 µg/mL) (converted)) read?
The IC50 was 329 µM.

Which results are given for `O=C(O)c1cc(O)c(O)c(O)c1` [Gallic acid]?
IC50 [3]: 65.6 µM; IC50 [2, 5]: 2.17 µM; IC50 [2, 6]: 2.2 µM

For `CC(C)Cc1ccc(C(C)C(=O)O)cc1` (centres unmarked) [Ibuprofen], which “Lipoxygenase inhibition IC50” value ([1]; extract and its control) is on record?
The value was 69.7 µg/mL.

Which “Lipoxygenase inhibition IC50” value ([1]; extract and its control) does the source give for `COc1ccc2c(c1)c(CC(=O)O)c(C)n2C(=O)c1ccc(Cl)cc1` [Indomethacin] here?
Its value is 7.9 µg/mL.

Which IC50 [2, 5] does the source give for `COC(=O)c1cc(O)c(O)c(O)c1` [Methyl gallate] here?
The IC50 was 330 µM.

For `O=c1c(O)c(-c2ccc(O)c(O)c2)oc2cc(O)cc(O)c12` [Quercetin, reference compound], which IC50 ([3]; sPLA2-V, diheptanoyl thio-PC substrate, 25 °C, mean ± s.d., read-out: sPLA2 Inhibition (IC50 µg/mL) (converted)) is on record?
Its IC50 is 77.7 µM.

Which “HA Inhibition (IC50 µg/mL)” value [4] does the source give for `O=C(O)C1=C[C@@H](O)[C@@H](O)[C@H](O)C1` [Shikimic acid] here?
Its value is “did not elicit anti-sPLA2-V and anti-hyaluronidase activities”.

What about the “sPLA2 Inhibition (IC50 µg/mL)” value ([3]; sPLA2-V, diheptanoyl thio-PC substrate, 25 °C, mean ± s.d.) of the same compound?
The value was “did not elicit anti-sPLA2-V; also recorded: not active”.

And the IC50 [2, 5]?
Its IC50 is 5.57 µM.

What about the IC50 [2, 6] of the same compound?
The IC50 was 5.6 µM.
